Results on two compounds are retold here after patent publication US7297332B2, “Protease, a gene therefor and the use thereof” (Korean Research Institute of Bioscience and Biotechnology, priority 2000, dated 2007).

The structures appear in SMILES notation. Entries after “also recorded” stand apart in the source; their conditions may differ.

This test relates to protease derived from Aranicola proteolyticus. As to the kind of experiment: Effect of protease inhibitors on the protease (azocasein assay). In kind it is biochemical, Aranicola proteolyticus HY-3. To be noted: for inhibition of the enzyme activity: 1 mM inhibitor, incubated at 37° C. for 5 minutes, azocasein substrate; for effect of metalloprotease inhibitor on protease activity: equal concentrations of inhibitors, FIG. 1. On the procedure: Enzyme activity of the protease was measured according to the method described by Braun & Shmitz (Braun, V. & Schmitz, G., Arch. Microbiol. 124, 55-61, 1980). A substrate solution was prepared by dissolving 0.24 g of azocasein in 10 ml of 50 mM phosphate buffer (pH 7.5). The 300 □ of the substrate solution was mixed with 100 □ of bacterial culture solution and reacted at 37° C. for 30 minutes. Then, 300 □ of 10% trichloride acetate was added to the reaction solution and incubated at ambient temperature for 1 hour. The reaction solution was centrifuged at 7,000 rpm until pellet and supernatant was separated substantially. After adding 30 0 of 10% sodium hydroxide (NaOH) to the supernatant, the absorbance was measured at 420 nm. The enzymatic titer was defined as 1 unit by the 1.0 fold increment of absorbance value.
In order to examine the effects of protease inhibitors on the activity of the protease, the enzyme solution was added by 1 mM each of inhibitors enumerated below and incubated at 37° C. for 5 minutes before measuring relative enzyme activity. The inhibitors tested include antopain which is an aminopeptidase inhibitor, phosphoramidon which is a metalloendopeptidase inhibitor, pepstatin which is an aspartate protease inhibitor, E-64(L-trans-exoxysuccinyl leucylamido(4-fuanidino)butane) which is a cystein inhibitor, chymostatin which is a chymotrypsin inhibitor, leupeptin, petabloc SC, aprotinin, and PMSF which are serine protease inhibitors, phenanthroline and EDTA which are metalloprotease inhibitors.

Consider `O=C(O)CN(CCN(CC(=O)O)CC(=O)O)CC(=O)O` [EDTA], for which the “inhibition of the enzyme activity” value is reported as “about 30%” and the “effect of metalloprotease inhibitor on protease activity” value is “lowered; also recorded: inhibited”.

On to `c1cnc2c(c1)ccc1cccnc12` [phenanthroline], for which the “inhibition of the enzyme activity” value is “about 70%” and the “effect of metalloprotease inhibitor on protease activity” value is reported as “lowered; also recorded: inhibited”.
